Columns and labels:
UHRF1 = biological target: T1, UHRF1 (Homo sapiens, UniProt Q96T88); test: Western blot of UHRF1 protein level in treated DU145 cells; assay type: cell-based
T1 construct: reduces the protein level of the oncogene UHRF1 in prostate cancer cells in a dose-dependent manner; endogenous in cells; host or cells: DU145
T1 sequence (Q96T88 1-793): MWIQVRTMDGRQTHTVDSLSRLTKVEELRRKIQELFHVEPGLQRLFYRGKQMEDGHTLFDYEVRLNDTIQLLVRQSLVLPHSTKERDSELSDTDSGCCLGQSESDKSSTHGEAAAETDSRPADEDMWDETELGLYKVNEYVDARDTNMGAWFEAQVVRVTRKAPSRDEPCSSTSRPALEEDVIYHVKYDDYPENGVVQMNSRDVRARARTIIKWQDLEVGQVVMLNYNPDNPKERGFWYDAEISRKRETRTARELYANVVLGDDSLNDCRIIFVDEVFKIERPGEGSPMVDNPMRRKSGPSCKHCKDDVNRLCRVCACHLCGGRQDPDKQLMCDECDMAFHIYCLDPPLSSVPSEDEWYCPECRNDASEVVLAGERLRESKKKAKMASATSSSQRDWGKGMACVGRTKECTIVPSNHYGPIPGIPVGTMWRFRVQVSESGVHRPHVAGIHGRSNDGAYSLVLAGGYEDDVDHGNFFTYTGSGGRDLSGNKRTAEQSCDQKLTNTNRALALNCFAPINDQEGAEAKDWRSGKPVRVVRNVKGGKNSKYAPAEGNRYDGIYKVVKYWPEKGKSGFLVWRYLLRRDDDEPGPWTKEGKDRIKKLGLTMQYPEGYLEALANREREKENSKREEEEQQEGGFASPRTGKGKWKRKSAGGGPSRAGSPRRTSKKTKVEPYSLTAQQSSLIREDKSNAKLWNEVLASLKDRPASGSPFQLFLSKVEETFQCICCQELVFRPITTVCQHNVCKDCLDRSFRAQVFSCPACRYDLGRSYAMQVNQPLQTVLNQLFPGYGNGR
Procedure: (§1) Culturing a same amount of prostate cancer cell line DU145 in each well of a 6-well culture dish, allowing cell adhesion for 24 hours, and then using different doses of said compound M3 (50, 100 and 150 μM) to treat the prostate cancer cell DU145, and using said compound M1 as a control drug. After 24 hours, harvest the cells for Western blot to detect the protein levels of UHRF1, histone H3 and acetylated histone H3. […] The results of this experiment verifies that the compound M3 of the present invention specifically dual-targeting UHRF1 and HDAC molecules.

HDAC1 [1] = biological target: T2, HDAC1 (Homo sapiens, UniProt Q13547); test: Western blot of acetylated histone H3 and total histone H3 in treated DU145 cells (HDAC targeting); assay type: cell-based; conditions: FIG. 6, M2 and M3 under the same dose
T2 construct: endogenous in cells; host or cells: DU145
T2 sequence (Q13547 whole entry): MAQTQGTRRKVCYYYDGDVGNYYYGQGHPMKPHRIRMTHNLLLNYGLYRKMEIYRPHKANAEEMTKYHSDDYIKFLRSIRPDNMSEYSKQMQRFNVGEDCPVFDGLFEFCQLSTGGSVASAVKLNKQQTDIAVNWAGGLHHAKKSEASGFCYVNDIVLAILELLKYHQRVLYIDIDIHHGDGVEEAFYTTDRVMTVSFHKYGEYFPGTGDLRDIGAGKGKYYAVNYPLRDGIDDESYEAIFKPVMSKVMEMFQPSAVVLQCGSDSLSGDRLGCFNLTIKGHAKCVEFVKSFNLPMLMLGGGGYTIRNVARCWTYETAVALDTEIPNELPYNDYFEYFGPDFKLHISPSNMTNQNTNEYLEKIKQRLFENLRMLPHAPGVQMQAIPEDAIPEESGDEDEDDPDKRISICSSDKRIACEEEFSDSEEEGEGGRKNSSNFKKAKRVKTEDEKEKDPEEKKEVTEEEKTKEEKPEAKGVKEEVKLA
Procedure: as §1

HDAC1 [2] = test: as above; assay type: cell-based; conditions: DU145 cells, 50, 100 and 150 μM, 24 hours, Western blot (FIG. 1)
Procedure: as §1

DNMT1 = test: Western blot of DNMT1 protein expression in treated DU145 cells; assay type: cell-based; conditions: 24 hours, Western blot (FIG. 1)
[3] = tested on: prostate cancer cells PC3; test: MTS cell survival assay, PC3; assay type: cell-based
Procedure: (§2) Culturing prostate cancer cells PC3 and DU145 cells, as well as non-cancerous normal cells (5000 cells/well) in a 96-well cell culture dish, and then using different doses of said compound M3 to treat prostate cancer cells PC3 and DU145 cells and normal […] cells RWPE1 and HPrEC. After 72 hours, detecting the survival rate of the cells by MTS method, and calculate […] of said compound M3 for different cells using software.

[4] = tested on: prostate cancer cells DU145; test: MTS cell survival assay, DU145; assay type: cell-based; conditions: Homo sapiens, DU-145, DU145, 72 hours, read-out: half inhibitory dose (IC50)
Procedure: as §2

RWPE1 cells = test: MTS cell survival assay, RWPE1; assay type: cell-based; conditions: Homo sapiens, RWPE-1, RWPE1 normal cells, 72 hours
Procedure: as §2

HPrEC cells = test: MTS cell survival assay, HPrEC; assay type: cell-based; conditions: HPrEC normal cells, 72 hours
Procedure: as §2

[5] = tested on: prostate cancer DU145 cells xenograft tumor; test: Subcutaneous xenograft model of prostate cancer DU145 cells in nude mouse; assay type: in vivo; conditions: 100 mg/kg/day intragastrically, 5 days a week, 4 weeks; compared with control compound M1
Procedure: Establishing a subcutaneous xenograft model of prostate cancer DU145 cells (1×106) in immunodeficient mouse by subcutaneous injection, allowing around 2-3 weeks for the xenograft to grow into a size of around 250 mm3, and then intragastrically administering the compound M3 of the present invention (100 mg/kg/day) once a day, 5 days a week with 2 days rest in between, for a total of 4 weeks of continuous treatment. Said […] and solvent DMSO are used as controls. Tumor size is measured before treatment and every 3 days after treatment begins. The size of the tumor is calculated according to the formula V=length×width 2/2.

[6] = Safety in nude mouse: weight and serum biochemical indicators; assay type: in vivo; conditions: 200 mg/kg/day intragastrically, 4 weeks
Procedure: Intragastrically administering the compound M3 of the present invention (200 mg/kg/day) in an immunodeficient nude mouse once a day, 5 days a week with 2 days rest in between, for a total of 4 weeks of continuous treatment; using solvent DMSO as a control. Weight of the nude mouse is measured before treatment and every 3 days after the treatment begins. When the experiment ends, extract blood from the nude mouse, separate blood serum, and detect the changes in biochemical indicators, including: aspartate aminotransferase (AST) and alanine aminotransferase (ALT) indicative of liver function, blood urea nitrogen (BUN) and creatinine (CREA) indicative of kidney function, and creatine kinase (CK) and l lactate dehydrogenase (LDH-L) indicative of heart function, to evaluate the effect of […] on heart, liver and kidney functions.

O=C(CCCCCCC(=O)Nc1c[nH]c(=O)[nH]c1=O)NO [M3, N1-(carbonyl-5-aminouracil)-N8-octylhydroxyamide]
protein level of UHRF1 (UHRF1; DU145 cells, 50, 100 and 150 μM, 24 hours, Western blot (FIG. 1)): specifically reduces the protein level of the oncogene UHRF1 in prostate cancer cells in a dose-dependent manner | protein level of UHRF1 target (UHRF1; FIG. 6, M2 and M3 under the same dose): significantly reduces the protein stability of UHRF1 | activity of HDAC1 (acetylated histone H3) (HDAC1 [1]): significantly inhibits the activity of HDAC1 | acetylation level of histone H3 (HDAC1 [2]): causes an increase in acetylation level of histone H3 | total histone H3 level (HDAC1 [2]): not affected | protein expression of DNMT1 (DNMT1): significantly reduced | IC50 ([3]; PC3, 72 hours, MTS, read-out: half inhibitory dose (IC50)): < 50 µM | selectivity for killing prostate cancer cells ([3]; PC3 and DU145 compared with RWPE1 and HPrEC): good selectivity for killing prostate cancer cells | IC50 [4]: < 50 µM | IC50 (RWPE1 cells): > 300 µM | IC50 (HPrEC cells): > 300 µM | tumor growth [5]: significantly reduces tumor growth compared with the control compound M1 | weight of the nude mouse [6]: does not significantly reduce the weight | heart function (CK, LDH-L) ([6]; blood serum): no significant effect | kidney function (BUN, CREA) ([6]; blood serum): no significant effect | liver function (AST, ALT) ([6]; blood serum): no significant effect

From patent publication US11479534B2, “Compound and use thereof in medicine” (Changsha Hooz Bioscience And Technology Co., Ltd, priority 2018, dated 2022)
